Measured values as given in US7692030B2, “Conjugates of artemisinin-related endoperoxides and hydrazone derivatives for the treatment of cancer” (University of Washington, priority 2006, dated 2010).

Key:
Experiment in all cases: NCI DTP human tumor cell line screen (SRB)
Format in all cases: cell-based
MOLT-4 = details: Leukemia, 10 μM, 48 h
Method: (§1) Representative compounds of the invention, prepared as described in EXAMPLES 1-6, were submitted to the Developmental Therapeutics Program of the United States National Cancer Institute (NCl) to screen for anti-cancer activity. The anti-cancer activities of the six compounds were tested against approximately 60 human tumor cell lines representing leukemia, melanoma, and cancers of the lung, colon, breast, ovary, kidney, prostate, and brain. The following screening methodology was provided by the NCl. […] For experimental screens, cells were inoculated into 96 well microtiter plates in 100 μL at plating densities ranging from 5,000 to 40,000 cells/well depending on the doubling time of individual cell lines. After cell inoculation, the microtiter plates were incubated at 37° C., 5% carbon dioxide, 95% air and 100% relative humidity for 24 hours prior to addition of the compounds. After 24 hours of incubation, two plates of each cell line were fixed in situ with trichloroacetic acid (TCA) to represent a measurement of the cell population for each cell line at the time of compound addition (Tz). The compounds were solubilized in dimethyl sulfoxide at 400-fold the desired final maximum test concentration and stored frozen prior to use. At the time of drug addition, frozen aliquots of the compounds thawed and diluted with complete medium containing 50 μg/ml gentamicin. Aliquots of 100 μl of these different compound dilutions were added to the appropriate microtiter wells already containing 100 μl of medium, resulting in the required final compound concentration of 10 μM. Following compound addition, the plates were incubated for an additional 48 h at 37° C., 5% carbon dioxide, 95% air, and 100% relative humidity. For adherent cells, the assay was terminated by the addition of cold TCA. Cells were fixed in situ by the gentle addition of 50 μl of cold 50% (w/v) TCA (final concentration, 10% TCA) and incubated for 60 minutes at 4° C. The supernatant was discarded, and the plates were washed five times with tap water and air dried. Sulforhodamine B (SRB) solution (100 μl) at 0.4% (w/v) in 1% acetic acid was added to each well, and plates were incubated for 10 minutes at room temperature. After staining, unbound dye was removed by washing five times with 1% acetic acid and the plates were air dried. Bound stain was subsequently solubilized with 10 mM trizma base, and the absorbance was read on an automated plate reader at a wavelength of 515 nm. For suspension cells, the methodology was the same except that the assay was terminated by fixing settled cells at the bottom of the wells by gently adding 50 μl of 80% TCA (final concentration, 16% TCA). Using the three absorbance measurements [time zero, (Tz), control growth, (C), and test growth in the presence of compound (Ti)], the percentage growth was calculated at each of the compound concentrations levels. Percentage growth inhibition was calculated with the following algorithms: [(Ti−Tz)/(C−Tz)]×100 for concentrations for which Ti>/=Tz [(Ti−Tz)/Tz]×100 for concentrations for which Ti<Tz The results of the NCl in vitro anticancer screening with six compounds against various human tumor cell lines are presented below in Tables 2-7. […] The growth percent mean, delta, and range for each compound are given below.

HCT-15 = details: Colon Cancer, 10 μM, 48 h
Method: as §1

PC-3 = details: Prostate Cancer, 10 μM, 48 h
Method: as §1

COLO 205 = details: Colon Cancer, 10 μM, 48 h
Method: as §1

SNB-75 = details: CNS Cancer, 10 μM, 48 h
Method: as §1

HCC-2998 = details: Colon Cancer, 10 μM, 48 h
Method: as §1

786-0 = details: Renal Cancer, 10 μM, 48 h
Method: as §1

K-562 = details: Leukemia, 10 μM, 48 h
Method: as §1

T-47D = details: Breast Cancer, 10 μM, 48 h
Method: as §1

NCI-H460 = details: Non-Small Cell Lung Cancer, 10 μM, 48 h
Method: as §1

HCT-116 = details: Colon Cancer, 10 μM, 48 h
Method: as §1

SK-MEL-2 = details: Melanoma, 10 μM, 48 h
Method: as §1

EKVX = details: Non-Small Cell Lung Cancer, 10 μM, 48 h
Method: as §1

OVCAR-4 = details: Ovarian Cancer, 10 μM, 48 h
Method: as §1

OVCAR-5 = details: Ovarian Cancer, 10 μM, 48 h
Method: as §1

SNB-19 = details: CNS Cancer, 10 μM, 48 h
Method: as §1

OVCAR-3 = details: Ovarian Cancer, 10 μM, 48 h
Method: as §1

NCI-H226 = details: Non-Small Cell Lung Cancer, 10 μM, 48 h
Method: as §1

MDA-MB-435 = details: Breast Cancer, 10 μM, 48 h
Method: as §1

SK-OV-3 = details: Ovarian Cancer, 10 μM, 48 h
Method: as §1

HOP-92 = details: Non-Small Cell Lung Cancer, 10 μM, 48 h
Method: as §1

UACC-257 = details: Melanoma, 10 μM, 48 h
Method: as §1

SK-MEL-5 = details: Melanoma, 10 μM, 48 h
Method: as §1

UO-31 = details: Renal Cancer, 10 μM, 48 h
Method: as §1

SF-295 = details: CNS Cancer, 10 μM, 48 h
Method: as §1

SF-539 = details: CNS Cancer, 10 μM, 48 h
Method: as §1

BT-549 = details: Breast Cancer, 10 μM, 48 h
Method: as §1

ACHN = details: Renal Cancer, 10 μM, 48 h
Method: as §1

NCI-H23 = details: Non-Small Cell Lung Cancer, 10 μM, 48 h
Method: as §1

U251 = details: CNS Cancer, 10 μM, 48 h
Method: as §1

CAKI-1 = details: Renal Cancer, 10 μM, 48 h
Method: as §1

SN12C = details: Renal Cancer, 10 μM, 48 h
Method: as §1

Structure (SMILES) | Growth Percent (MOLT-4) | Growth Percent (HCT-15) | Growth Percent (PC-3) | Growth Percent (COLO 205) | Growth Percent (SNB-75) | Growth Percent (HCC-2998) | Growth Percent (786-0) | Growth Percent (K-562) | Growth Percent (T-47D) | Growth Percent (NCI-H460) | Growth Percent (HCT-116) | Growth Percent (SK-MEL-2) | Growth Percent (EKVX) | Growth Percent (OVCAR-4) | Growth Percent (OVCAR-5) | Growth Percent (SNB-19) | Growth Percent (OVCAR-3) | Growth Percent (NCI-H226) | Growth Percent (MDA-MB-435) | Growth Percent (SK-OV-3) | other results
CC1CCC2C(C)C(OCCn3cc(C(=O)NN=Cc4ccccc4O)nn3)OC3OC4(C)CCC1C32OO4 (stereo not drawn) [ART-Triazole-Sal, N′-(2-hydroxybenzylidene)-1-(dihydroxyartemisinin-ethyl)-1H-1,2,3-triazole-4-carbohydrazide] | −0.29% | 34.01% | 38.28% | 26.05% | −8.40% | 25.98% | 1.80% | 17.31% | 37.45% | 2.83% | 20.87% | −15.86% | 35.04% | 15.89% | 41.28% | 45.73% | 50.36% | 26.98% | 35.26% | 32.87% | Growth Percent (HOP-92): 44.42%; Growth Percent (UACC-257): 19.39%; Growth Percent (SK-MEL-5): 12.45%; Growth Percent (UO-31): −28.61%; Growth Percent (SF-295): 24.32%; Growth Percent (SF-539): 14.19%; Growth Percent (BT-549): 40.56%; Growth Percent (ACHN): 15.69%; Growth Percent (NCI-H23): 30.70%; Growth Percent (U251): 24.89%; Growth Percent (CAKI-1): 40.15%; Growth Percent (SN12C): 45.26%
CC1CCC2C(C)C(OCc3ccc(C(=O)NN=Cc4ccccc4O)o3)OC3OC4(C)CCC1C32OO4 (stereo not drawn) [ART-Furan-Sal, N′-(2-hydroxybenzylidene)-5-(dihydroxyartemisinin-methyl)-furan-2-carbohydrazide] | −23.49% | 30.86% | 28.01% | 18.60% | −17.31% | 5.37% | −22.22% | 8.79% | 10.28% | −26.28% | 13.81% | −27.21% | 25.37% | 12.86% | 28.70% | 25.11% | 30.23% | 13.93% | 25.70% | 14.53% | Growth Percent (HOP-92): 37.02%; Growth Percent (UACC-257): 9.72%; Growth Percent (SK-MEL-5): −46.62%; Growth Percent (UO-31): −35.28%; Growth Percent (SF-295): 12.70%; Growth Percent (SF-539): −11.48%; Growth Percent (BT-549): 22.47%; Growth Percent (ACHN): 7.80%; Growth Percent (NCI-H23): 17.54%; Growth Percent (U251): 12.24%; Growth Percent (CAKI-1): 17.44%; Growth Percent (SN12C): 27.18%
Cc1ncc(CO)c(C=NNC(=O)c2ccc(COC3OC4OC5(C)CCC6C(C)CCC(C3C)C46OO5)cc2)c1O (stereo not drawn) [ART-Phe-Pyridoxal, N′-(5-hydroxy-3-hydroxymethyl-2-methyl-4-pyridylidene)-4-(dihydroxyartemisinin-methyl)-phenyl carbohydrazide] | −25.71% | 15.22% | 31.12% | −4.40% | 42.44% | 27.38% | −19.54% | 22.86% | −2.71% | −3.33% | 15.30% | 20.14% | 12.34% | 21.42% | 44.98% | 4.26% | 19.87% | 4.49% | 18.74% | −4.66% | Growth Percent (HOP-92): 20.97%; Growth Percent (UACC-257): 1.40%; Growth Percent (SK-MEL-5): −43.83%; Growth Percent (UO-31): 4.39%; Growth Percent (SF-295): 25.08%; Growth Percent (SF-539): −20.49%; Growth Percent (BT-549): −18.57%; Growth Percent (ACHN): 7.45%; Growth Percent (NCI-H23): 13.86%; Growth Percent (U251): 17.87%; Growth Percent (CAKI-1): −12.33%; Growth Percent (SN12C): 16.82%
